This note sets out measurements from patent US9206161B2, “Bridged bicyclic heteroaryl substituted triazoles useful as Axl inhibitors” (Rigel Pharmaceuticals, Inc., priority 2008, dated 2015).

The target of this assay is T1, Axl (Homo sapiens, UniProt P30530).
T1 construct: endogenous in cells; host or cells: HeLa cells
T1 sequence (P30530 26-894): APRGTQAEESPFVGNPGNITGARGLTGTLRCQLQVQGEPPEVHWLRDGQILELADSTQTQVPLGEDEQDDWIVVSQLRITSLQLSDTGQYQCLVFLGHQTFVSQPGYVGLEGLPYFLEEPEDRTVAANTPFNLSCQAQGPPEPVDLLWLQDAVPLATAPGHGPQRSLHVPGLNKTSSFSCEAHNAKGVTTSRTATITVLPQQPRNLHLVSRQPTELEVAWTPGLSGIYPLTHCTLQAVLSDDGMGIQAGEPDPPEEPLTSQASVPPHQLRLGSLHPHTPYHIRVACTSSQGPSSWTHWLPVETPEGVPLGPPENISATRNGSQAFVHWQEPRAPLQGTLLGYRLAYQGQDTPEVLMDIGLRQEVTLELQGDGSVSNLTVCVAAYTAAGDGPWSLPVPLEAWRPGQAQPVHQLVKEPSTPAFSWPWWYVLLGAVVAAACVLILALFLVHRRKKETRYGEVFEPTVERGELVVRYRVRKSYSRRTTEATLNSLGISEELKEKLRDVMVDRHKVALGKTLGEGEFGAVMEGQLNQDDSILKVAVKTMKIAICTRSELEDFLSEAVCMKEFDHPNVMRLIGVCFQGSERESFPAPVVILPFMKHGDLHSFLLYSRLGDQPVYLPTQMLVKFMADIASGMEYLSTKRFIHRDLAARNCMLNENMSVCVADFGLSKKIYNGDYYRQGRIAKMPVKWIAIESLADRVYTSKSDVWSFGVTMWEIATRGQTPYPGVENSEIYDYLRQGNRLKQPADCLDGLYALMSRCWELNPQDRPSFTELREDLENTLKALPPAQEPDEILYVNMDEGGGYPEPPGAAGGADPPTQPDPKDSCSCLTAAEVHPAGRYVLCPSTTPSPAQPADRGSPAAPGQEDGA
Kind of assay: Phospho-Akt in-cell Western assay. The assay is classed as cell-based. The following applies: Hela cells, Axl antibody cross-linking stimulation, phospho-Akt readout. The procedure:
Phospho-Akt in-Cell Western Assay
The compounds of the invention were tested in the following assay for their ability to inhibit Axl activity.
• Cell culture plate: 96 well assay plate (Corning 3610), white, clear bottom, tissue-culture treated. • Cells: Hela cells. • Starvation medium: For Axl stimulation: 0.5% FCS (fetal calf serum) in DMEM, plus Axl/Fc (extracellular domain of AXL fused to immunoglobulin Fc region) (R&D, 154-AL) 500 ng/mL. • For EGF (epidermal growth factor) stimulation: 0.5% FCS in DMEM (Dulbecco's modified Eagles medium). • Poly-L-Lysine 0.01% solution (the working solution): 10 μg/ml, dilute In PBS (phosphate buffered saline). • Axl antibody cross-linking: • 1st: Mouse anti-Axl (R&D, MAB154). • 2nd: Biotin-SP-conjugated AffiniPure goat anti-mouse IgG (H+L) (Jackson ImmunoResearch #115-065-003). • Fixing buffer: 4% formaldehyde in PBS. • Wash buffer: 0.1% TritonX-100 in PBS. • Quenching buffer: 3% H2O2, 0.1% Azide in wash buffer, Azide and hydrogen peroxide (H2O2) are added fresh. • Blocking buffer: 5% BSA in TBST (tris buffered saline plus 0.1% Tween 20). • Primary antibody: Rabbit anti-human Phospho-Akt antibody (Cell Signaling 9271): 1×250 diluted in blocking buffer. • Secondary antibody: HRP (horse radish peroxidase)-conjugated Goat anti-Rabbit secondary, stock solution: Jackson ImmunoResearch (Goat anti-Rabbit HRP, #111-035-144) 1:1 diluted in glycerol, store at −20° C. The working solution: 1×2000 dilution of stock in blocking buffer. • Chemiluminescent working solution (Pierce, 37030): SuperSignal ELISA (enzyme linked immunosorbant assay) Pico Chemiluminescent substrate. • Crystal Violet solution: Stock: 2.5% Crystal violet in methanol, filtered and kept at ambient temperature. The working solution: dilute the stock 1:20 with PBS immediately before use. • 10% SDS: working solution: 5% SDS (sodium dodecylsulfate), diluted in PBS Methods: Day 1:
A 96 well TC (tissue culture treated) plate was coated with 10 μg/mL poly-L-Lysine at 37° C. for 30 min, washed twice with PBS, and air-dried for 5 minutes before cells were added. Hela cells were seeded at 10,000 cells/well and the cells were starved in 100 μL starvation medium containing Axl/Fc for 24 hrs.
The cells were pre-treated with test compounds by adding 100 μL of 2× test compound to the starvation medium on the cells. The cells were incubated at 37° C. for 1 hr before stimulation.
The cells were stimulated by Axl-antibody cross-linking as follows: A 5×1st/2nd Axl antibody mixture was made (37.5 μg/mL 1st/100 μg/mL 2nd) in starvation medium and nutated at 4° C. with thorough mixing for 1-2 hours for clustering. The resulting mix was warmed to 37° C. 50 μL of 5× Axl 1st/2nd of antibody cluster was added to the cells and the cells were incubated at 37° C. for 5 min.
After 5 minutes stimulation, the plate was flicked to remove medium and the plate was tapped onto paper towels. Formaldehyde (4.0% in PBS, 100 μL) was added to fix the cells and the cells were incubated at ambient temperature for 20 min without shaking.
The cells were washed with a plate washer buffer to remove the formaldehyde solution. The plate was flicked to removed excess wash buffer and tapped onto paper towels. Quenching buffer (100 μL) was added to each well and the cells were incubated at ambient temperature for 20 minutes without shaking.
The cells were washed with a plate washer buffer to remove the quenching buffer. Blocking buffer (100 μL) was added and the cells were incubated at ambient temperature for at least an hour with gentle shaking.
The cells were washed with a plate washer buffer and diluted primary antibody (50 μL) was added to each well (blocking buffer was added to the negative control wells instead). The plates were incubated overnight at 4° C. with gentle shaking.
The wash buffer was removed, diluted secondary antibody (100 μL) was added, and the cells were incubated at ambient temperature for 1 hour with gentle shaking. […]

In turn, `N#Cc1cccc(-c2nnc(-n3nc(Nc4ccc5c(c4)CCC(N4CCCC4)CC5)nc3N)c3c2C2CCC3CC2)c1` (stereo not shown) [Compound 31, 1-(4-(3-cyanophenyl)-5,8-ethano-5,6,7,8-tetrahydrophthalazine-1-yl)-N^3-(7-(pyrrolidin-1-yl)-6,7,8,9-tetrahydro-5H-benzo[7]annulene-2-yl)-1H-1,2,4-triazole-3,5-diamine] had an IC50 (Table 8, formula (VI)) below 1000 nM.

As to `CN(C)[C@H]1CCc2ccc(Nc3nc(N)n(-c4cc(-c5ccccc5)c5c(n4)C4CCN5CC4)n3)cc2CC1` [Compound 36, (7S)-1-(1,4-ethano-8-phenyl-1,2,3,4-tetrahydro-1,5-naphthyridin-6-yl)-N^3-(7-(dimethylamino)-6,7,8,9-tetrahydro-5H-benzo[7]annulene-2-yl)-1H-1,2,4-triazole-3,5-diamine], the IC50 (Table 4, formula (III)) is above 20000 nM.

The compound `C[C@H]1CN(c2ccc(Nc3nc(N)n(-c4nnc(Cl)c5c4C4CCC5CC4)n3)cn2)CCN1CC1CC1` [Compound 20, (3S)-1-(4-chloro-5,8-ethano-5,6,7,8-tetrahydrophthalazine-1-yl)-N^3-(6-(4-(cyclopropylmethyl)-3-methylpiperazin-1-yl)pyridin-3-yl)-1H-1,2,4-triazole-3,5-diamine] displayed an IC50 (Table 7, formula (V)) below 1000 nM.

Under “Table 3, formula (II)”, `Nc1nc(Nc2ccc(N3CCC(N4CCCC4)CC3)c(F)c2)nn1-c1cc(-c2cccc(C(F)(F)F)c2)c2c(n1)C1CCN2CC1` [Compound 10, 1-(1,4-ethano-8-(3-trifluoromethylphenyl)-1,2,3,4-tetrahydro-1,5-naphthyridin-6-yl)-N^3-(4-(4-(pyrrolidin-1-yl)piperidinyl)-3-fluorophenyl)-1H-1,2,4-triazole-3,5-diamine] had an IC50 below 1000 nM.

With `Nc1nc(Nc2cnc3c(c2)CC(NC2CCCC2)CC3)nn1-c1cc(-c2ccccc2)c2c(n1)C1CCN2CC1` (stereo not shown) [Compound 5, 1-(1,4-ethano-8-phenyl-1,2,3,4-tetrahydro-1,5-naphthyridin-6-yl)-N^3-(6-(cyclopentylamino)-5,6,7,8-tetrahydroquinoline-3-yl)-1H-1,2,4-triazole-3,5-diamine], the IC50 (Table 1, formula (Ia)) is below 1000 nM.

Take `Nc1nc(Nc2ccc(N3CCC(N4CCCC4)CC3)c(F)c2)nn1-c1nnc(Cl)c2c1C1CCC2CC1` [Compound 13, 1-(4-chloro-5,8-ethano-5,6,7,8-tetrahydrophthalazine-1-yl)-N^3-(4-(4-(pyrrolidin-1-yl)piperidinyl)-3-fluorophenyl)-1H-1,2,4-triazole-3,5-diamine]: the IC50 (Table 5, formula (IVa)) is below 1000 nM.

`C[C@H]1CN(c2ccc(Nc3nc(N)n(-c4nnc(-c5ccccc5)c5c4C4CCC5CC4)n3)cn2)CCN1CC1CC1` [Compound 21, (3S)-1-(4-phenyl-5,8-ethano-5,6,7,8-tetrahydrophthalazine-1-yl)-N^3-(6-(4-(cyclopropylmethyl)-3-methylpiperazin-1-yl)pyridin-3-yl)-1H-1,2,4-triazole-3,5-diamine]: where the note is “Table 7, formula (V)”, the IC50 lay within 1000 to 10000 nM.

As to `Nc1nc(Nc2cnc3c(c2)CNCC3)nn1-c1cc(-c2ccccc2)c2c(n1)C1CCN2CC1` [Compound 2, 1-(1,4-ethano-8-phenyl-1,2,3,4-tetrahydro-1,5-naphthyridin-6-yl)-N^3-(5,6,7,8-tetrahydro-1,6-naphthyridine-3-yl)-1H-1,2,4-triazole-3,5-diamine], the IC50 (Table 2, formula (Ib)) is below 1000 nM.

Where the note is “Table 1, formula (Ia)”, `Nc1nc(Nc2cnc3c(c2)CC(N)CC3)nn1-c1cc(-c2ccccc2)c2c(n1)C1CCN2CC1` (stereo not shown) [Compound 1, 1-(1,4-ethano-8-phenyl-1,2,3,4-tetrahydro-1,5-naphthyridin-6-yl)-N^3-(6-amino-5,6,7,8-tetrahydroquinoline-3-yl)-1H-1,2,4-triazole-3,5-diamine] returned an IC50 below 1000 nM.

Turning to `Cc1ccccc1-c1cc(-n2nc(Nc3ccc(N4CCC(N5CCCC5)CC4)c(F)c3)nc2N)nc2c1N1CCC2CC1` [Compound 12, 1-(1,4-ethano-8-(2-methylphenyl)-1,2,3,4-tetrahydro-1,5-naphthyridin-6-yl)-N^3-(4-(4-(pyrrolidin-1-yl)piperidinyl)-3-fluorophenyl)-1H-1,2,4-triazole-3,5-diamine], the IC50 (Table 3, formula (II)) was below 1000 nM.

A word on the IC50: it is the concentration needed to halve the response being measured. Higher therefore signals a need for much substance.
